According to ChEMBL document CHEMBL5576062 (Bioorg Med Chem Lett, 2024):
Active and inactive are the calls of the source. The rule behind the calls is not given here.

Target: T1, Histone deacetylase 8 (Homo sapiens, UniProt Q9BY41)
T1 sequence (Q9BY41 whole entry): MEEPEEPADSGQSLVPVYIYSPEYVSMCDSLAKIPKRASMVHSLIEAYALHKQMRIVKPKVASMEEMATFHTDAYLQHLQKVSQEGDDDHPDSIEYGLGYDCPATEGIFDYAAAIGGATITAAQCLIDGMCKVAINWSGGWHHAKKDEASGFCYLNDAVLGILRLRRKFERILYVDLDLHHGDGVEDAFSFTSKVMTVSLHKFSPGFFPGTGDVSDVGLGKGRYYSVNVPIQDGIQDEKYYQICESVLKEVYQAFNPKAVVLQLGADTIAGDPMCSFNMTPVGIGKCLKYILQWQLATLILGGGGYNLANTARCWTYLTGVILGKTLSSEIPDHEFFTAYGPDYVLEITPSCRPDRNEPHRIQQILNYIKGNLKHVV
Experiment: Inhibition of HDAC8 (unknown origin) by SAMDI high throughput mass spectrometry

Row | SMILES | IC50
1 | COc1ccc(Cn2ccc3ccc(C(=O)Nc4ccccc4O)cc32)cc1 | 220 µM
2 | COc1ccc(Cn2ccc3ccc(/C(N)=N/O)cc32)cc1 | 340 µM
3 | COc1ccc(Cn2ccc3ccc(C(=O)NS(C)(=O)=O)cc32)cc1 | > 1000 µM
4 | COc1ccc(Cn2ccc3ccc(C(=O)N/N=C\c4ccccc4O)cc32)cc1 | > 1000 µM
5 | COc1ccc(Cn2ccc3ccc(C(=O)Nc4ccccc4SC)cc32)cc1 | 360 µM
6 | NC(Cc1ccc(Cl)cc1Cl)C(=O)N1Cc2ccccc2C1 (stereo not given) | 7.9 µM
7 | COc1ccc(Cn2ccc3ccc(-c4nn[nH]n4)cc32)cc1 | > 1000 µM
8 | COc1ccc(Cn2ccc3ccc(C(=O)c4nccs4)cc32)cc1 | 210 µM
9 | COc1ccc(Cn2ccc3ccc(-c4noc(=S)[nH]4)cc32)cc1 | 330 µM
10 | COc1ccc(Cn2ccc3ccc(C(=O)NCCO)cc32)cc1 | 170 µM
11 | COc1ccc(Cn2ccc3ccc(C(=O)NS(=O)(=O)N(C)C)cc32)cc1 | 320 µM
12 | COc1ccc(Cn2ccc3ccc(-c4noc(C(F)(F)F)n4)cc32)cc1 | > 1000 µM
13 | CCC(=O)c1ccc2ccn(Cc3ccc(OC)cc3)c2c1 | 120 µM
14 | COc1ccc(Cn2ccc3ccc(NC(=O)c4ccccc4N)cc32)cc1 | 130 µM
15 | COc1ccc(Cn2ccc3ccc(C(=O)C(F)(F)F)cc32)cc1 | 570 µM
16 | COc1ccc(Cn2ccc3ccc(C(=O)Nc4ccccc4N)cc32)cc1 | 150 µM
17 | COc1ccc(Cn2ccc3ccc(NC(=O)c4ccccc4O)cc32)cc1 | 360 µM
18 | COc1ccc(Cn2ccc3ccc(-c4noc(=O)[nH]4)cc32)cc1 | 140 µM
19 | COc1ccc(Cn2ccc3ccc(C(=O)c4cc(C)on4)cc32)cc1 | 200 µM
20 | COc1ccc(Cn2ccc3ccc(C(=O)NCC(C)O)cc32)cc1 (stereo not given) | 890 µM
21 | CCC(=O)Cc1ccc2ccn(Cc3ccc(OC)cc3)c2c1 | 240 µM
22 | COc1ccc(Cn2ccc3ccc(NC(=O)c4ccccc4SC)cc32)cc1 | 340 µM
23 | COc1ccc(Cn2ccc3ccc(NC(=O)c4ccccn4)cc32)cc1 | 490 µM

Test system: not listed separately
Experiment: Binding affinity to Zinc ion assessed as metal chelating activity at approximately 1 uM

Row | SMILES | Activity
24 | COc1ccc(Cn2ccc3ccc(C(=O)NO)cc32)cc1 | Active

Test system: not listed separately
Experiment: Binding affinity to Zinc ion assessed as metal chelating activity

Row | SMILES | Activity
25 | NC(Cc1ccc(Cl)cc1Cl)C(=O)N1Cc2ccccc2C1 (stereo not given) | inactive
